Measured values reported in patent US11419865B2, “Method for inducing a sustained immune response” (Cytocom Inc., priority 2016, dated 2022).

Assays:
[1] = system: advanced pancreatic cancer; settings: cited from earlier work
IBS patients = assay: open-label study in forty-two IBS patients; type: in vivo, human
Protocol: Forty-two IBS patients participated in an open-label study. Participants received 0.5 mg PTI-901/day for 4 weeks and were evaluated during baseline, during treatment, and at 4-week follow-up. Patients recorded degree of abdominal pain, stool urgency, consistency, and frequency. Primary outcomes were number of pain-free days and overall symptom relief, evaluated by a global assessment score. Data were analyzed per protocol. Global assessment improved in 76% of 42 patients. During treatment, the mean weekly number of pain-free days increased from 0.5+/−1 to 1.25+/−2.14 (P=0.011).

Row | Compound | Clinical benefit response, historical controls [1] [%] | adverse reactions (IBS patients; 0.5 mg/day for 4 weeks) | patients with improved global assessment (IBS patients; 0.5 mg/day for 4 weeks, 42 patients) [%] | mean weekly number of pain-free days during treatment (IBS patients; 0.5 mg/day, baseline 0.5+/−1, P=0.011) [days]
1 | O=c1[nH]cc(F)c(=O)[nH]1 [5-fluorouracil (5-FU), 5-fluorouracil] | 4.8 | – | – | –
2 | Cl.O=C1CC[C@@]2(O)[C@H]3Cc4ccc(O)c5c4[C@@]2(CCN3CC2CC2)[C@H]1O5 [PTI-901] | – | no significant adverse reactions | 76 | 1.25 ± 2.14
3 | Nc1ccn([C@@H]2O[C@H](CO)[C@@H](O)C2(F)F)c(=O)n1 [gemcitabine] | 23.8 | – | – | –
